The test system of this data set is STIL CCD peptide. In words: AUC sedimentation equilibrium (SE), oligomeric state. It is filed as physicochemical. As to conditions: starting concentration 500 µM, triplicate, absorbance 280 nm, 95% confidence limits. The procedure:
To quantify the dissociation constants of the possible monomer-dimer and dimer-tetramer transitions, we used fluorescence-based binding measurements. Using micro-scale thermophoresis, fluorescence measurements were taken at increasing concentrations of WT CCD peptide in a fixed background of 5 µM fluorophore-labelled peptide. […] Fitting the fluorescence data to the Hill equation provided a dissociation constant of 8 ± 2 µM and a cooperativity of 1.2 ± 0.3 (Figure 2B, Table S4). We interpret this as being for the monomer-dimer transition, and that the fluorescence measurements are insensitive to the higher-order oligomerization. […] To probe the possible dimer-tetramer transition, we turned to AUC-SE measurements with starting concentrations of 5, 10, and 20 µM of STIL WT CCD peptide (Figures S18 and S19). The equilibrated data were fitted first to a model for a single ideal species, which provided a species 2.9 × monomer mass (Table 1). […] It should be noted that the dimerization constant of the WT peptide was measured in the presence of 5% DMSO and using a fluorophore-labeled peptide, while the tetramerization constant was measured without DMSO and unlabeled peptides. The addition of the label and the presence of the DMSO, which was unavoidable for making the labeled peptide soluble, may have affected the measured dimerization constant. Thus, we avoid directly comparing the values obtained by the two methods.
Analytical ultracentrifugation (AUC) experiments were carried out using a Beckman Optima XL-A or XL-I analytical ultracentrifuge. Measurements were performed at 20 °C unless otherwise stated, using an An-50 or An-60 rotor, in Sodium Phosphate Buffer pH 6.8 (25 mM Na2PO4 with addition of 137 mM NaCl, pH measured using Jenway (TM) 3510 benchtop and adjusted using 1M HCl and 1M NaOH solutions). The partial specific volume ( υ¯ ) for each peptide were calculated in Sedfit using values from Cohn and Edsall. The buffer densities and viscosities were calculated using UltraScan III [54].
AUC sedimentation equilibrium (SE) experiments were run at multiple concentrations in a 6-Channel Epon charcoal-filled centerpiece. The samples were centrifuged at a range of speeds between 22–48 krpm. Absorbance scans across the radial range were recorded twice at each speed to ensure equilibration. Data were fitted to single, ideal species models or monomer-dimer equilibrium using Sedphat. In total, 95% confidence limits were obtained via Monte-Carlo analysis of the obtained fits. The quality of the fit was evaluated using the χ^2 parameter to observe which model best fit the data. Both fits of the data, where performed in Figures S18–S23 with their corresponding fit information.

Take “L SPDAYRF LTEQDRQ LRLEQAQ IQRLLEA QSL-NH2 [STIL CCD718–749 L736E, STIL CCD peptide with destabilising L736E mutation; PDB 8oyk]”: the “mass, single species model, SE” value was found to be 3038 ± 292 Da. In addition, where the note is “single species fit, 20 °C, pH 6.8”, the “AUC oligomeric state, SE” value is 0.79 ± 0.08 (500 µM) × monomer mass.
